One compound from US20150231240A1, “ANTI-C16ORF54 ANTIBODIES AND METHODS OF USE THEREOF” (priority 2012, published 2015) can be followed below.

Broadly, the IC50 is the concentration at which inhibition is half-maximal. A high value points to weaker potency.

The structures appear in SMILES notation. Square brackets hold non-standard residues; d marks the D form. Peptide text beside a SMILES is read from it. * marks the point of attachment. Dolaproine = CO[C@@H]([C@@H]1CCCN1)[C@@H](C)C(=O)O; Dil = CC[C@H](C)[C@H](NC)[C@@H](CC(=O)O)OC; X1 = C[C@@H](N*)[C@@H](O)c1ccccc1; NMeV = CN[C@H](C(=O)O)C(C)C

Assay [1] deals with C16orf54 expressing Sarcoma line 1. The assay is described as follows: Cell viability assay, C16orf54 expressing sarcoma line 1. Format: cell-based, murine. Particulars: 1000 cells/well, 72 hours. The method, then: (§1) Murine sarcoma cell lines that express C16orf54 were prepared by virus infection of sarcoma cell lines. A PCR-amplified C16orf54 gene was cloned into a murine stem cell virus expression vector with a neomycin resistance gene and sequenced to confirm the identity. To prepare virus particles, HEK 293t cells with retroviral packaging proteins were transfected, in the presence of transfection reagent FUGENE HD (Roche), with the retroviral expression vector containing C16orf54. The virus particles collected from the supernatant of the culture media 48 hours after transfection were used to infect the sarcoma cells. After G418 selection, stable transfectants were pooled and then cloned by limiting dilution. Clones were then picked and expanded in the presence of antibiotics. Clones with the highest expression level of C16orf54 as measured by flow cytometry were expanded and banked. These cell lines were then used to immunize the syngeneic mice for antibody production and in the binding assays for antibody selection as follows.
(§2) The anti-tumor activity of unconjugated anti-C16orf54 antibodies and anti-C16orf54 antibodies that were directly conjugated with […] (ADCs) was determined in a cell viability assay using several C16orf54-expressing cell lines. Cells were plated at 1000 cells/well and incubated in the presence of antibodies or ADCs for 72 hours.

Assay [2] deals with C16orf54 expressing sarcoma line 2. The experiment in a line: Cell viability assay, C16orf54 expressing sarcoma line 2. The note with it: 1000 cells/well, 72 hours. The assay is classed as cell-based, murine. The method, then: as §1, §2

Regarding `CC[C@H](C)[C@@H]([C@@H](CC(=O)N1CCC[C@H]1[C@H](OC)[C@@H](C)C(=O)N[C@H](C)[C@@H](O)c1ccccc1)OC)N(C)C(=O)[C@@H](NC(=O)[C@@H](NC)C(C)C)C(C)C` [MMAE, monomethylauristatin E] (H-[NMeV]V[Dil][Dolaproine]-X1), the IC50 in assay [1] came to 0.4 nM; in assay [2], 4.1 nM.
